Experimental data as given in patent US9486440B2, “Uses of indole-ketones or indolidones as neuro-protective drugs” (UNIVERSITY OF MACAU, priority 2011, dated 2016).
Entries after “also recorded” stand apart in the source; their conditions may differ.

Columns and labels:
CGNs = assay: MPP+-induced neurotoxicity in CGNs, MTT and LDH assays; assay type: cell-based, rat; conditions: for MPP+-induced cell death (cell viability, MTT and LDH assays): pre-treatment 2 hours, then 35 μM MPP+ for 24 hours; for cell proliferative or cytotoxic effects of the drug alone: without MPP+, 26 hours, SU4312 1-30 μM, SU5416 30 μM, sunitinib 2 μM; for MPP+-induced neurotoxicity, co-administration: co-administrated with 35 μM MPP+, SU4312 10-20 μM, PTK787/ZK222584 10 μM, MTT at 24 hours
Method: (§1) All animal experiments were conducted according to the ethical guidelines of ICMS, Macau University and the Animal Care Facility, The Hong Kong Polytechnic University. Rat CGNs were prepared from 8-day-old Sprague-Dawley rats (The Animal Care Facility, The Hong Kong Polytechnic University) as described by Li et al., 2005. Briefly, neurons were seeded at a density of 2.7×10^5 cells/ml in basal modified Eagle's medium (Invitrogen) containing 10% fetal bovine serum, 25 mM KCl, 2 mM glutamine, and penicillin (100 units/ml)/streptomycin (100 μg/ml). Cytosine arabinoside (10 μM) was added to the culture medium 24 hour after plating to limit the growth of non-neuronal cells. With the use of this protocol, more than 95% of the cultured cells were granule neurons.
(§2) The percentage of surviving neurons in the presence of SU4312 and/or MPP^+ was estimated by determining the activity of mitochondrial dehydrogenases with 3(4,5-dimethylthiazol-2-yl)-2.5-diphenyltetrazolium bromide (MTT) assay (Li et al., 2007). The assay was performed according to the specifications of the manufacturer (MTT kit I; Roche Applied Science). Briefly, the neurons were cultured in 96-well plates, 10 μl of 5 mg/ml MTT labeling reagent was added to each well containing cells in 100 μl of medium, and the plates were incubated for 4 hours in a humidified incubator at 37° C. After the incubation, 100 μl of the solvating solution (0.01 N HCl in 10% SDS solution) was added to each well for 16-20 hours. Absorbance of the samples was measured at a wavelength of 570 nm with 655 nm as a reference wavelength. Unless otherwise indicated, the extent of MTT conversion in cells exposed to MPP^+ is expressed as a percentage of the control.
Cytotoxicity was determined by measuring the release of lactate dehydrogenase (LDH). Briefly, cells were precipitated by centrifugation at 500 g for 5 min at room temperature, 50 μl of the supernatants was transferred into new wells, and LDH was determined using the in vitro toxicology assay kit (Roche). The absorbance of the samples was measured at a wavelength of 490 nm with 655 nm as a reference wavelength.
as §1, with “Rat” for “All animal experiments were conducted according to the ethical guidelines of ICMS, Macau University and the Animal Care Facility, The Hong Kong Polytechnic University. Rat”, “hours” for “hour”
as §2, with “The” for “The percentage of surviving neurons in the presence of SU4312 and/or MPP^+ was estimated by determining the activity of mitochondrial dehydrogenases with 3(4,5-dimethylthiazol-2-yl)-2.5-diphenyltetrazolium bromide (MTT) assay (Li et al., 2007). The”, “incubated at 37° C.” for “incubated”, “incubator.” for “incubator at 37° C.”, “The absorbance” for “Absorbance”

[1] = test system: DA neurons in the zebrafish brain; assay: MPTP zebrafish, whole-mount immunostaining against tyrosine hydroxylase; assay type: in vivo; conditions: 200 μM MPTP, 2 days from 1 dpf; SU4312 3-30 μM, PTK787/ZK222584 0.3-3 μM, SU5416 0.1-1 μM, VRI 0.03-0.3 μM
Method: Wild-type zebrafish (AB strain) and Tg (fli-1:EGFP) transgenic zebrafish were maintained as described in the Zebrafish Handbook (Westerfield, 1993). Zebrafish embryos were generated by natural pair-wise mating (3-12 months old) and raised at 28.5° C. in embryo medium (13.7 mM NaCl, 540 μM KCl, pH 7.4, 25 μM Na2HPO4, 44 μM KH2PO4, 300 μM CaCl2, 100 μM MgSO4, 420 μM NaHCO3, pH 7.4). […] An equal concentration of DMSO in embryo medium was used as vehicle control in each experiment.

PC12 cells = assay: MPP+-induced neurotoxicity in PC12 cells, MTT assay; assay type: cell-based; conditions: for cell proliferative or cytotoxic effects of the drug alone, PC12 cells: alone for 26 hours, 10 μM SU4312, 3 μM PTK787/ZK222584; for toxicity to PC12 cells at higher concentration: data not shown; for MPP+-induced neuronal death in PC12 cells (MTT): pre-treatment 2 hours, then 1 mM MPP+ for 24 hours, SU4312 10 μM, PTK787/ZK222584 3 μM
Method: The human neuroblastoma SH-SY5Y cells were obtained from ATCC. The cells were maintained in supplemented Dulbecco's modified eagle medium (DMEM), 10% fetal bovine serum, 100 U/ml penicillin, and 100 μg/ml streptomycin in a 37° C., 5% CO2 incubator. PC12 pheochromocytoma cells were also obtained from ATCC. The cells were cultured in medium that consisted of DMEM, 10% heat-inactivated horse serum, 5% fetal bovine serum, 100 U/ml penicillin, and 100 μg/ml streptomycin in a 37° C., 5% CO2 incubator. All experiments were carried out 48 hours after the cells were seeded.
as §2

SH-SY5Y cells = assay: MPP+-induced neurotoxicity in SH-SY5Y cells, MTT assay; assay type: cell-based, human; conditions: for cell proliferative or cytotoxic effects of the drug alone, SH-SY5Y cells: alone for 26 hours, 10 μM SU4312, 3 μM PTK787/ZK222584, 0.3 μM sunitinib; for toxicity to SH-SY5Y cells at higher concentration: higher concentration (sunitinib 1 μM), data not shown; for MPP+-induced neuronal death in SH-SY5Y cells (MTT): pre-treatment 2 hours, then 1 mM MPP+ for 24 hours
Method: The human neuroblastoma SH-SY5Y cells were obtained from ATCC. The cells were maintained in supplemented Dulbecco's modified eagle medium (DMEM), 10% fetal bovine serum, 100 U/ml penicillin, and 100 μg/ml streptomycin in a 37° C., 5% CO2 incubator. PC12 pheochromocytoma cells were also obtained from ATCC. The cells were cultured in medium that consisted of DMEM, 10% heat-inactivated horse serum, 5% fetal bovine serum, 100 U/ml penicillin, and 100 μg/ml streptomycin in a 37° C., 5% CO2 incubator. All experiments were carried out 48 hours after the cells were seeded. […] The assay was performed according to the specifications of the manufacturer (MTT kit I; Roche Applied Science). […] After the incubation, 100 μl of the solvating solution (0.01 N HCl in 10% SDS solution) was added to each well for 16-20 hours. Absorbance of the samples was measured at a wavelength of 570 nm with 655 nm as a reference wavelength. Unless otherwise indicated, the extent of MTT conversion in cells exposed to MPP^+ is expressed as a percentage of the control.

## Cc1cc(C)c(/C=C2\C(=O)Nc3ccccc32)[nH]1 [SU5416, (3Z)-3-[(3,5-dimethyl-1H-pyrrol-2-yl)methylidene]-1,3-dihydro-2H-indol-2-one]
CGNs
  MPP+-induced cell death (cell viability, MTT and LDH assays): prevented 35 μM MPP^+-induced cell death in a concentration-dependent manner
  cell proliferative or cytotoxic effects of the drug alone: did not produce any cell proliferative or cytotoxic effects
[1]
  MPTP-induced loss of DA neurons / decrease of TH+ region area: significantly prevented the decrease in the area of TH^+ region induced by MPTP

## CN(C)c1ccc(C=C2C(=O)Nc3ccccc32)cc1 [SU4312, 3-[4-(dimethylamino)benzylidenyl]indolin-2-one]
CGNs
  MPP+-induced neurotoxicity, co-administration: still had neuroprotective effects
  MPP+-induced cell death (cell viability, MTT and LDH assays): prevented MPP^+-induced cell death in a concentration-dependent manner
  cell proliferative or cytotoxic effects of the drug alone: did not affect cell proliferation or show any cytotoxic effects; also recorded: did not induce any neurotoxicity
PC12 cells
  cell proliferative or cytotoxic effects of the drug alone, PC12 cells: did not show cell proliferative or cytotoxic effects
  toxicity to PC12 cells at higher concentration: at higher concentration conferred toxicity
  MPP+-induced neuronal death in PC12 cells (MTT): prevented MPP^+-induced dopaminergic neuronal death
[1]
  MPTP-induced loss of DA neurons / decrease of TH+ region area: significantly alleviated the loss of DA neurons
SH-SY5Y cells
  cell proliferative or cytotoxic effects of the drug alone, SH-SY5Y cells: did not show cell proliferative or cytotoxic effects
  toxicity to SH-SY5Y cells at higher concentration: at higher concentration conferred toxicity
  MPP+-induced neuronal death in SH-SY5Y cells (MTT): prevented MPP^+-induced dopaminergic neuronal death at 3-10 μM in SH-SY5Y cells

## Clc1ccc(Nc2nnc(Cc3ccncc3)c3ccccc23)cc1 [PTK787/ZK222584]
CGNs
  MPP+-induced neurotoxicity, co-administration: did not show neuroprotective effects
  MPP+-induced cell death (cell viability, MTT and LDH assays): at 3-10 μM failed to block neuronal loss in vitro
PC12 cells
  cell proliferative or cytotoxic effects of the drug alone, PC12 cells: did not show cell proliferative or cytotoxic effects
  toxicity to PC12 cells at higher concentration: at higher concentration conferred toxicity
  MPP+-induced neuronal death in PC12 cells (MTT): at 3 μM failed to block neuronal loss induced by MPP^+
SH-SY5Y cells
  cell proliferative or cytotoxic effects of the drug alone, SH-SY5Y cells: did not show cell proliferative or cytotoxic effects
  toxicity to SH-SY5Y cells at higher concentration: at higher concentration conferred toxicity
  MPP+-induced neuronal death in SH-SY5Y cells (MTT): at 3 μM failed to block neuronal loss induced by MPP^+
SH-SY5Y cells; listed as PTK787
  MPP+-induced neuronal death in SH-SY5Y cells (MTT): at 1 and 3 μM failed to block neuronal loss induced by MPP^+
